Reference: US6420405B2, “Pharmaceutical composition for angiotensin II-mediated diseases” (Takeda Chemical Industries, Ltd., priority 1993, dated 2002)

What was measured:
Assay type in all cases: in vivo, rat
[1] = system: Spontaneously Hypertensive Rats (SHR); experiment: Antihypertensive activity in SHR by co-administration with a calcium antagonistic drug (Test Example 2, tail cuff); settings: for blood pressure, 1 week / blood pressure, 2 weeks / blood pressure, 1 day: 5 hr after administration; for blood pressure, 1 week / blood pressure, 2 weeks / blood pressure, 1 day / blood pressure, Before admin.: male SHR; for blood pressure, Before admin.: before administration (baseline)
Protocol: Antihypertensive Activity in Spontaneously Hypertensive Rats (SHR) by the Co-administration with a Calcium Antagonistic Drug
Method: Male SHR of 20 week old were divided into six groups (five animals per group). The respective groups were administered orally with the compound 1 (0.1 or 1 mg/kg, p.o.) or MDP (3 mg/kg, p.o.) alone or with a mixture of them once a day for two weeks. On the first, 7th and 14th day at 5 hr after the administration, blood pressure of each test animal was measured by the tail cuff method under unanesthesia.

[2] = system: Spontaneously Hypertensive Rats (SHR); experiment: Antihypertensive activity in SHR by co-administration with a diuretic drug (Test Example 1, tail cuff); settings: for blood pressure, 1 week / blood pressure, 2 weeks / blood pressure, 1 day: 5 hr after administration; for blood pressure, 1 week / blood pressure, 2 weeks / blood pressure, 1 day / blood pressure, Before admin.: male SHR; for blood pressure, Before admin.: before administration (baseline); for antihypertensive action: SHR
Protocol: Antihypertensive Activity in Spontaneously Hypertensive Rats (SHR) by the Co-administration with a Diuretic Drug Method: […] The respective groups were administered orally with the compound 1(0.1 or 1 mg/kg,p.o.) or HCT (10 mg/kg, p.o.) alone or both drugs simultaneously once a day for two weeks.

[3] = system: Spontaneously Hypertensive Rats (SHR); experiment: Antihypertensive activity in SHR by co-administration with a diuretic drug (Test Example 3, compound 2, tail cuff); settings: for blood pressure, 1 week / blood pressure, 2 weeks / blood pressure, 1 day: 5 hr after administration; for blood pressure, 1 week / blood pressure, 2 weeks / blood pressure, 1 day / blood pressure, Before admin.: male SHR; for blood pressure, Before admin.: before administration (baseline); for antihypertensive action: SHR
Method: Method: Male SHR of 20 week old were divided into 6 groups (five animals in one group). The respective groups were administered orally with the compound 2 (0.1 or 1 mg/kg,p.o.) or HCT (10 mg/kg, p.o.) alone or both drugs simultaneously once a day for two weeks. On the first, 7th and 14th day at 5 hr after the administration, blood pressure of each test animal was measured by the tail cuff method under unanesthesia.

SMILES: COC(=O)C1=C(C)NC(C)=C(C(=O)OCCN2CCN(C(c3ccccc3)c3ccccc3)CC2)C1c1cccc([N+](=O)[O-])c1 (centres unmarked) [MDP, manidipine, reference compound]
- blood pressure, 1 week ([1]; MDP 3 mg/kg/day p.o.): 132 ± 5 mmHg
- blood pressure, 2 weeks ([1]; MDP 3 mg/kg/day p.o.): 136 ± 7 mmHg
- blood pressure, 1 day ([1]; MDP 3 mg/kg/day p.o.): 157 ± 2 mmHg
- blood pressure, Before admin. ([1]; MDP 3 mg/kg/day p.o.): 190 ± 5 mmHg

SMILES: NS(=O)(=O)c1cc2c(cc1Cl)NCNS2(=O)=O [HCT, hydrochlorothiazide, reference compound]
- blood pressure, 1 week ([2]; HCT 10 mg/kg/day p.o.): 177 ± 3 mmHg
- blood pressure, 2 weeks ([2]; HCT 10 mg/kg/day p.o.): 181 ± 2 mmHg
- blood pressure, 1 day ([2]; HCT 10 mg/kg/day p.o.): 178 ± 3 mmHg
- blood pressure, Before admin. ([2]; HCT 10 mg/kg/day p.o.): 186 ± 3 mmHg
- antihypertensive action ([2]; HCT alone, 10 mg/kg/day, p.o.): did not show antihypertensive action
- blood pressure, 1 week ([3]; HCT 10 mg/kg/day p.o.): 190 ± 5 mmHg
- blood pressure, 2 weeks ([3]; HCT 10 mg/kg/day p.o.): 195 ± 3 mmHg
- blood pressure, 1 day ([3]; HCT 10 mg/kg/day p.o.): 188 ± 5 mmHg
- blood pressure, Before admin. ([3]; HCT 10 mg/kg/day p.o.): 206 ± 5 mmHg
- antihypertensive action ([3]; HCT alone, 10 mg/kg/day, p.o.): did not show antihypertensive action

SMILES: CCOc1nc2cccc(C(=O)OC(C)OC(=O)OC3CCCCC3)c2n1Cc1ccc(-c2ccccc2-c2nnn[nH]2)cc1 (racemic) [Cpd. 1, (±)-1-(cyclohexyloxycarbonyloxy)ethyl 2-ethoxy-1-[[2′-(1H-tetrazol-5-yl)biphenyl-4-yl]methyl]-1H-benzimidazole-7-carboxylate]
- blood pressure, 1 week ([2]; Cpd. 1 0.1 mg/kg/day p.o.): 155 ± 3 mmHg
- blood pressure, 2 weeks ([2]; Cpd. 1 0.1 mg/kg/day p.o.): 162 ± 3 mmHg
- blood pressure, 1 day ([2]; Cpd. 1 0.1 mg/kg/day p.o.): 161 ± 5 mmHg
- blood pressure, Before admin. ([2]; Cpd. 1 0.1 mg/kg/day p.o.): 183 ± 2 mmHg
- blood pressure, 1 week ([2]; Cpd. 1 1 mg/kg/day p.o.): 138 ± 2 mmHg
- blood pressure, 2 weeks ([2]; Cpd. 1 1 mg/kg/day p.o.): 135 ± 3 mmHg
- blood pressure, 1 day ([2]; Cpd. 1 1 mg/kg/day p.o.): 153 ± 5 mmHg
- blood pressure, Before admin. ([2]; Cpd. 1 1 mg/kg/day p.o.): 186 ± 2 mmHg
- antihypertensive action ([2]; compound 1 alone, 0.1 and 1 mg/kg/day): dose dependent antihypertensive action
- blood pressure, 1 week ([1]; Cpd. 1 0.1 mg/kg/day p.o.): 158 ± 4 mmHg
- blood pressure, 2 weeks ([1]; Cpd. 1 0.1 mg/kg/day p.o.): 160 ± 4 mmHg
- blood pressure, 1 day ([1]; Cpd. 1 0.1 mg/kg/day p.o.): 157 ± 2 mmHg
- blood pressure, Before admin. ([1]; Cpd. 1 0.1 mg/kg/day p.o.): 190 ± 2 mmHg
- blood pressure, 1 week ([1]; Cpd. 1 1 mg/kg/day p.o.): 131 ± 13 mmHg
- blood pressure, 2 weeks ([1]; Cpd. 1 1 mg/kg/day p.o.): 142 ± 4 mmHg
- blood pressure, 1 day ([1]; Cpd. 1 1 mg/kg/day p.o.): 148 ± 3 mmHg
- blood pressure, Before admin. ([1]; Cpd. 1 1 mg/kg/day p.o.): 196 ± 3 mmHg
- antihypertensive effect ([1]; compound 1 alone, 0.1 and 1 mg/kg/day, SHR): dose dependent antihypertensive effect

SMILES: CCOc1nc2cccc(C(=O)O)c2n1Cc1ccc(-c2ccccc2-c2nc(=O)o[nH]2)cc1 [Cpd. 2, 2-ethoxy-1-[[2′-(2,5-dihydro-5-oxo-1,2,4-oxadiazole-3-yl)biphenyl-4-yl]methyl]-1H-benzimidazole-7-carboxylic acid]
- blood pressure, 1 week ([3]; Cpd. 2 0.1 mg/kg/day p.o.): 182 ± 6 mmHg
- blood pressure, 2 weeks ([3]; Cpd. 2 0.1 mg/kg/day p.o.): 191 ± 8 mmHg
- blood pressure, 1 day ([3]; Cpd. 2 0.1 mg/kg/day p.o.): 187 ± 6 mmHg
- blood pressure, Before admin. ([3]; Cpd. 2 0.1 mg/kg/day p.o.): 215 ± 5 mmHg
- blood pressure, 1 week ([3]; Cpd. 2 1 mg/kg/day p.o.): 161 ± 4 mmHg
- blood pressure, 2 weeks ([3]; Cpd. 2 1 mg/kg/day p.o.): 165 ± 3 mmHg
- blood pressure, 1 day ([3]; Cpd. 2 1 mg/kg/day p.o.): 175 ± 5 mmHg
- blood pressure, Before admin. ([3]; Cpd. 2 1 mg/kg/day p.o.): 219 ± 7 mmHg
- antihypertensive action ([3]; compound 2 alone, 0.1 and 1 mg/kg/day): dose dependent antihypertensive action
